Our source for the Selectivity ratio and IC50 values is ChEMBL document CHEMBL1129592 (J Med Chem, 1996).

Bounds are passed on as bounds.

The nature of experiment [1]: Selectivity ratio of IC50 values of 5-hydroxytryptamine 1A receptor vs 5-hydroxytryptamine 2 receptor.
Experiment [2] deals with 5-hydroxytryptamine receptor 2A (Rattus norvegicus, UniProt P14842). Nature of the experiment: Binding affinity towards rat 5-hydroxytryptamine 2A receptor was evaluated using [3H]- ketanserin as radioligand.
5-hydroxytryptamine receptor 2A, sequence (P14842 whole entry): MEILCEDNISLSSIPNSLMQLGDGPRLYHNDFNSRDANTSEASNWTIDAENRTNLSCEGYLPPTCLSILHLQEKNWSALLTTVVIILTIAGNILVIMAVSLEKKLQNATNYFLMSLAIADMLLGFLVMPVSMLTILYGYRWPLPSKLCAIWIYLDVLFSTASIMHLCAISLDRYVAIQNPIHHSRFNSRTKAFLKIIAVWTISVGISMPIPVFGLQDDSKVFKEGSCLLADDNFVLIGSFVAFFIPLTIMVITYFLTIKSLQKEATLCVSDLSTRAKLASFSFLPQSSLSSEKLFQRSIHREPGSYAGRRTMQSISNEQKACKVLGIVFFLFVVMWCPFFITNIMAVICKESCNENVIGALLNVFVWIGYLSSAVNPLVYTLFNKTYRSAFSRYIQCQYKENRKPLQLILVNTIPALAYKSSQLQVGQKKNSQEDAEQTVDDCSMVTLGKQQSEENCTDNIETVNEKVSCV
Experiment [3] is described as follows: Selectivity ratio of IC50 values of 5-hydroxytryptamine 1A receptor vs dopamine receptor D2.
For experiment [4], the target named is T1, 5-hydroxytryptamine receptor 1A (Rattus norvegicus, UniProt P19327).
T1 sequence (P19327 whole entry): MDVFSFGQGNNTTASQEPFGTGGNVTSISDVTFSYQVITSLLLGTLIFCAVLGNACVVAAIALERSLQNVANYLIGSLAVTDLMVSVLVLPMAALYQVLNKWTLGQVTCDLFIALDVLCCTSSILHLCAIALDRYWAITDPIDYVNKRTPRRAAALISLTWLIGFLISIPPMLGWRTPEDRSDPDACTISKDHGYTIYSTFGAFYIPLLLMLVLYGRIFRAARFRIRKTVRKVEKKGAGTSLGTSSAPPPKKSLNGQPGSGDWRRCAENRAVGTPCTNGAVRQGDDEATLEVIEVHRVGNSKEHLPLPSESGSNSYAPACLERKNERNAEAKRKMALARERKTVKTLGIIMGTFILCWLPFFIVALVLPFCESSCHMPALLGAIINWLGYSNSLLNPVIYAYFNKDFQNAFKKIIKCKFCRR
Nature of the experiment: Binding affinity towards rat 5-hydroxytryptamine 1A receptor was evaluated using [3H]8-OH-DPAT as radioligand.

For experiment [5], the target named is D(2) dopamine receptor (Rattus norvegicus, UniProt P61169). Nature of the experiment: Binding affinity towards rat Dopamine receptor D2 was evaluated using [3H]- spiroperidol as radioligand.
D(2) dopamine receptor, sequence (P61169 whole entry): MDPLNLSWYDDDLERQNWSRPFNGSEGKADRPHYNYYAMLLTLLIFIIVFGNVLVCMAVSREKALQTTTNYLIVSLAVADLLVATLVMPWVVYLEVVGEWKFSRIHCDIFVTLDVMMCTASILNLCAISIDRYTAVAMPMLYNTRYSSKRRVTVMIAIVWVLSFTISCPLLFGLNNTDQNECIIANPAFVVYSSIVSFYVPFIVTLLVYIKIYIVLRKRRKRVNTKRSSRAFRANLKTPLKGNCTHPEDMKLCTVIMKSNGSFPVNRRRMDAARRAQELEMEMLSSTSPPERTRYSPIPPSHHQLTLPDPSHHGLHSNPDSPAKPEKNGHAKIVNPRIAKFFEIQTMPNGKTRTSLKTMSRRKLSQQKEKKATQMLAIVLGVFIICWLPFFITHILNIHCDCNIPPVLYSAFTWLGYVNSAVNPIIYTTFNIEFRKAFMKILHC
In experiment [6] the target is T2, Adrenergic receptor alpha-2 (Rattus norvegicus, UniProt P22086+P19328+P22909).
T2 sequence (P22086 whole entry): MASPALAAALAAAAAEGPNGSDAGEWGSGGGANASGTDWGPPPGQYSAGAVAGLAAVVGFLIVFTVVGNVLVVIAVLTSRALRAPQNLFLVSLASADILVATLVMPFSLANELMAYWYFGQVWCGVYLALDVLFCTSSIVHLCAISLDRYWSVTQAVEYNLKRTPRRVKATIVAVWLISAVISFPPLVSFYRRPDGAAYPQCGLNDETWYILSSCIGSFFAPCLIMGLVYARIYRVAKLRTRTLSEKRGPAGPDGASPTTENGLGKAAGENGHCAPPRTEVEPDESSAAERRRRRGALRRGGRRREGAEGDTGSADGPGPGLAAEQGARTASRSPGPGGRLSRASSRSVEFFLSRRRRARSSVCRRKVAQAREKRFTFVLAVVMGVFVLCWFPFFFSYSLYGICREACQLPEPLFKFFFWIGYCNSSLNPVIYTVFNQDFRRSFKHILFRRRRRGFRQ
T2 sequence (P19328 whole entry): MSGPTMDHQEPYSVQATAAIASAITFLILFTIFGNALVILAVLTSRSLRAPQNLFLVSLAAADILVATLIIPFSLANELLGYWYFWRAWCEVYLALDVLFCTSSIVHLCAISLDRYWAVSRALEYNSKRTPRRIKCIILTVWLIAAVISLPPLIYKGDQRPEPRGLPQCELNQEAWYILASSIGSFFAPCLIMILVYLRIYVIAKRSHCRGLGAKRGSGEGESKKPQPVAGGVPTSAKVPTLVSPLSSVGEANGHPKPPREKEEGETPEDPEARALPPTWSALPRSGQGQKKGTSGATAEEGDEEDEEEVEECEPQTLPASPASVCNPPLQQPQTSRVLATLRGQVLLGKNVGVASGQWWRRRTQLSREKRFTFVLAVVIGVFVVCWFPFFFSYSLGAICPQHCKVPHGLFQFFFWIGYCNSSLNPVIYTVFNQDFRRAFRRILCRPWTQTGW
T2 sequence (P22909 whole entry): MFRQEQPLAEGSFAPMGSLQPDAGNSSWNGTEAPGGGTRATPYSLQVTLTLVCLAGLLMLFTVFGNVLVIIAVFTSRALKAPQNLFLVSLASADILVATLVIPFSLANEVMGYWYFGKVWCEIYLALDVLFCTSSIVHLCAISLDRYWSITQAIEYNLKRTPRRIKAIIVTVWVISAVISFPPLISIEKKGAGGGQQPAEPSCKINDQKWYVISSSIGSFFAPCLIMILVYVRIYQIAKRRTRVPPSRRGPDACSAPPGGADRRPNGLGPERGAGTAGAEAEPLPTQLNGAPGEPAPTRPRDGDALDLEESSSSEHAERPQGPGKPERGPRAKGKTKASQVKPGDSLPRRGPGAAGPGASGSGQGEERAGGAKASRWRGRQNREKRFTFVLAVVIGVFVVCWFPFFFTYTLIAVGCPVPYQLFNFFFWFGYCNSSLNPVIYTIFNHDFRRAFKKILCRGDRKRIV
Nature of the experiment: Binding affinity towards rat Alpha-2 adrenergic receptor was evaluated using [3H]- yohimbine as radioligand. The experiment is classed as protein assay.

Experiment [7] concerns the target T3, Adrenergic receptor alpha-1 (Rattus norvegicus, UniProt P15823+P23944+P43140).
T3 sequence (P15823 whole entry): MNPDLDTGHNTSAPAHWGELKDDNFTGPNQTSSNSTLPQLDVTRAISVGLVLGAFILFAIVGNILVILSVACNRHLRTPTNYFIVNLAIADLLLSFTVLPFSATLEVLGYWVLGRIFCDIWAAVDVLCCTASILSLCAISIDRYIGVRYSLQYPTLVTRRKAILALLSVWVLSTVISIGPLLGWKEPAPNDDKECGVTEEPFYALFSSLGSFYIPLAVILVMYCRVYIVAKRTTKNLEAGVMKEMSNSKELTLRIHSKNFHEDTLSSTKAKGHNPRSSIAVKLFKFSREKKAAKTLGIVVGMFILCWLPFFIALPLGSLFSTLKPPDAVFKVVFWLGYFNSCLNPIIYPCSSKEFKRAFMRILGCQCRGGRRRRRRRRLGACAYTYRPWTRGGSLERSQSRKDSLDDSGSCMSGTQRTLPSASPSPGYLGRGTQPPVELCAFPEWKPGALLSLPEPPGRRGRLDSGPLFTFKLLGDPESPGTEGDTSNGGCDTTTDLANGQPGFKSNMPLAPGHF
T3 sequence (P23944 whole entry): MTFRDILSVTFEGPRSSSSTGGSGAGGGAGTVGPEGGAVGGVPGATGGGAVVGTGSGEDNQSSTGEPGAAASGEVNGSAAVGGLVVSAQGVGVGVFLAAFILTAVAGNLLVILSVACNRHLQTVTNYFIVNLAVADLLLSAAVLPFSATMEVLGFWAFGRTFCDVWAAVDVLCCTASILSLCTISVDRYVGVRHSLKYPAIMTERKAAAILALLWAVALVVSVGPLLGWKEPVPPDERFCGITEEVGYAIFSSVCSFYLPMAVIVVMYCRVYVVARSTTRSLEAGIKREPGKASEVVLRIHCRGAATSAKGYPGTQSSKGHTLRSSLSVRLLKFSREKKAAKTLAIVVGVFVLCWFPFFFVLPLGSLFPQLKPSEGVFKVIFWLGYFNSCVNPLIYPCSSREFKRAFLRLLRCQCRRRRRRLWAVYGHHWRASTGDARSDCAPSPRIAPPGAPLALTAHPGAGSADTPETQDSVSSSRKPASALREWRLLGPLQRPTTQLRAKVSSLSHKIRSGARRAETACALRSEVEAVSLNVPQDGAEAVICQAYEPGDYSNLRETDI
T3 sequence (P43140 whole entry): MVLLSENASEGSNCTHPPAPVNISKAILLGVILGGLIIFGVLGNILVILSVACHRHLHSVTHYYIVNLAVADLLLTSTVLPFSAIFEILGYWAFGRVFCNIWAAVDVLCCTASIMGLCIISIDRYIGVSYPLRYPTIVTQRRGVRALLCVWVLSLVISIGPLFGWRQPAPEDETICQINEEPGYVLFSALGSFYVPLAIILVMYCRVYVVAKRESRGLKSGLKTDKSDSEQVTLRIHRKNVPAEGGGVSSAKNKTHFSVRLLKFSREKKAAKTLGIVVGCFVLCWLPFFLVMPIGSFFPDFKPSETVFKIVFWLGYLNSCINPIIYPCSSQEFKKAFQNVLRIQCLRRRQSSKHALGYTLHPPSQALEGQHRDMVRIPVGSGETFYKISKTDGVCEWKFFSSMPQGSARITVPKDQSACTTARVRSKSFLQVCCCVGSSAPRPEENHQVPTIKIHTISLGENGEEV
Nature of the experiment: Binding affinity towards rat Alpha-1 adrenergic receptor was evaluated using [3H]- prazosin as radioligand. The experiment is classed as protein assay.

Experiment [8] is described as follows: Selectivity ratio of IC50 values of 5-hydroxytryptamine 1A receptor vs Alpha-2 adrenergic receptor.

For the molecule `COc1cccc2c1CCC=C2CCCN1CCN(c2ccccc2)CC1`, the Selectivity ratio in experiment [1] is 11; in experiment [3], 17. For the same molecule, the IC50 (commonly the concentration that gives 50% inhibition) in experiment [2] worked out at 204 nM.
`CCCN(CCC)C1CCc2cccc(O)c2C1` (stereo not drawn) [8-OH-DPAT]: the IC50 in experiment [2] is above 10000 nM.
As for `COc1cccc2c1CCC(CCN1CCN(c3ccccc3)CC1)=C2`, the IC50 is 191 nM in experiment [4]; 276 nM in experiment [5]; 357 nM in experiment [6]; 194 nM in experiment [7]; 241 nM in experiment [2]. Further, the Selectivity ratio in experiment [1] came to 1; in experiment [8], 2; in experiment [3] it was 1.
`COc1cccc2c1CCC/C2=C\CCN1CCN(c2ccccc2)CC1`: the Selectivity ratio in experiment [1] came to 31; in experiment [8] it was 15; in experiment [3], 5. Moreover, the IC50 came to 100 nM in experiment [5], 290 nM in experiment [6], 120 nM in experiment [7] and 580 nM in experiment [2].
Turning to `COc1ccc2c(c1)CCC(CCN1CCN(c3ccccc3)CC1)C2` (stereo not drawn), the IC50 in experiment [4] came out at 3.7 nM; in experiment [5] it was 120 nM; in experiment [6], 160 nM; in experiment [7], 79 nM; in experiment [2], 86 nM. The Selectivity ratio in experiment [1] was 23; in experiment [8], 43; in experiment [3] it was 32.
In the case of `COc1cccc2c1CCCC2CCCN1CCN(c2ccccc2)CC1` (stereo not drawn), the Selectivity ratio in experiment [1] amounted to 460; in experiment [8], 520; in experiment [3] it was 220. Further, the IC50 in experiment [2] is 230 nM.
As to `COc1ccc2c(c1)C=C(CCN1CCN(c3ccccc3)CC1)CC2`, the half-inhibitory concentration (IC50) in experiment [4] stood at 7.3 nM; in experiment [5] it was 136 nM; in experiment [6], 122 nM; in experiment [7], 58 nM; in experiment [2], 106 nM. In addition, the Selectivity ratio in experiment [1] was 15; in experiment [8] it was 18; in experiment [3] it was 22.
For the molecule `COc1ccc2c(c1)CCC(CCN1CCN(c3ccccc3)CC1)=C2`, the half-inhibitory concentration (IC50) in experiment [4] came out at 8.2 nM; in experiment [5] it was 170 nM; in experiment [6], 130 nM; in experiment [7], 88 nM; in experiment [2], 56 nM. Also, the Selectivity ratio is 7 in experiment [1], 16 in experiment [8] and 24 in experiment [3].
With `COc1ccc2c(c1)CCCC2CCCN1CCN(c2ccccc2)CC1` (stereo not drawn), the results for the Selectivity ratio in experiment [1], in experiment [8] and in experiment [3] were 30, 31 and 17, respectively. Moreover, the IC50 in experiment [5] came to 91 nM; in experiment [6], 170 nM; in experiment [7] it was 45 nM; in experiment [2], 160 nM.
Regarding `COc1cccc2c1CCCC2CCCCN1CCN(c2ccccc2)CC1` (stereo not drawn), the half-inhibitory concentration (IC50) in experiment [4] was 15 nM; in experiment [5] it was 110 nM; in experiment [6], 770 nM; in experiment [7], 130 nM; in experiment [2] it was 420 nM. The Selectivity ratio was 28 in experiment [1], 51 in experiment [8] and 7 in experiment [3].
For `COc1cccc2c1CCCC2CCCN1CCN(c2ccccn2)CC1` (stereo not drawn), the values for the Selectivity ratio in experiment [1], in experiment [8] and in experiment [3] were 462, 89 and 259, respectively. This molecule also registered a 50% inhibitory concentration (IC50) in experiment [2] of 250 nM.
For the molecule `COc1ccccc1N1CCN(CCCC2CCCc3c(OC)cccc32)CC1` (stereo not drawn), in experiment [2], the IC50 was determined as 330 nM.
As for `COc1ccc2c(c1)C(CCCN1CCN(c3ccccc3)CC1)=CCC2`, the Selectivity ratio came to 0.8 in experiment [1] and 1 in experiment [3]. For the same molecule, the concentration for half-maximal inhibition (IC50) is 157 nM in experiment [5], 173 nM in experiment [7] and 119 nM in experiment [2].
Consider `COc1cccc2c1CCCC2CCN1CCN(c2ccccc2)CC1` (stereo not drawn), for which the IC50 in experiment [4] turned out to be 140 nM; in experiment [5] it was 210 nM; in experiment [6] it was 22 nM; in experiment [7] it was 84 nM; in experiment [2] it was 12 nM. For the same molecule, the Selectivity ratio in experiment [1] was 0.1; in experiment [8] it was 0.2; in experiment [3] it was 2.
For the molecule `COc1ccc2c(c1)CC(CCN1CCN(c3ccccc3)CC1)CC2` (stereo not drawn), the IC50 worked out at 3.6 nM in experiment [4]; 100 nM in experiment [5]; 260 nM in experiment [6]; 80 nM in experiment [7]; 230 nM in experiment [2]. Moreover, the Selectivity ratio in experiment [1] was 64; in experiment [8], 72; in experiment [3], 28.
